IC50 data for 1 compound are collected here from patent US20090036485A1, “Quinoline derivatives” (priority 2004, published 2009).

Structures are written as SMILES.

The target of one test is T1, PDGFRβ tyrosine kinase (Homo sapiens, UniProt P09619).
T1 construct: PDGFRα, PDGFRβ and KDR receptor cytoplasmic domains, obtained by expression of recombinant protein in insect cells; purchased Upstate Biotechnology Inc. 14-463; host or cells: Sf9 insect cells
Briefly: In vitro enzyme assay (ELISA), PDGFRβ tyrosine kinase. It counts as biochemical.

In another test the target is T2, PDGFRα tyrosine kinase (Homo sapiens, UniProt P16234).
T2 construct: PDGFRα, PDGFRβ and KDR receptor cytoplasmic domains, obtained by expression of recombinant protein in insect cells; purchased Upstate Biotechnology Inc. 14-467; host or cells: Sf9 insect cells
Nature of the test: In vitro enzyme assay (ELISA), PDGFRα tyrosine kinase. It counts as biochemical. As to conditions: Test (a); ATP 14 μM; read-out: IC50 versus PDGFRα tyrosine kinase. The procedure: The ability of test compounds to inhibit the phosphorylation of a tyrosine containing polypeptide substrate by the tyrosine kinase enzymes PDGFRα, PDGFRβ and KDR was assessed using conventional ELISA assays.
DNA encoding the PDGFRα, PDGFRβ or KDR receptor cytoplasmic domains may be obtained by total gene synthesis (International Biotechnology Lab., 1987, 5(3), 19-25) or by cloning. The DNA fragments may be expressed in a suitable expression system to obtain polypeptide with tyrosine kinase activity. For example, PDGFRα, PDGFRβ and KDR receptor cytoplasmic domains, obtained by expression of recombinant protein in insect cells, can be shown to display intrinsic tyrosine kinase activity. In the case of the VEGF receptor KDR (Genbank Accession No. L04947), a DNA fragment encoding most of the cytoplasmic domain, commencing with methionine 806 and including the termination codon may be cloned into a baculovirus transplacement vector [for example pAcYM1 (see The Baculovirus Expression System: A Laboratory Guide, L. A. King and R. D. Possee, Chapman and Hall, 1992) or pAc360 or pBlueBacHis (available from Invitrogen Corporation)]. This recombinant construct may be co-transfected into insect cells [for example Spodoptera frugiperda 21(Sf21) or Spodoptera frugiperda 9(Sf9)] with viral DNA (for example Pharmingen BaculoGold) to prepare recombinant baculovirus. […]

The next test addresses T3, KDR tyrosine kinase (Homo sapiens, UniProt P35968).
T3 construct: encoding most of the cytoplasmic domain, commencing with methionine 806 and including the termination codon; made in house; host or cells: Sf9 insect cells (baculovirus)
Nature of the test: In vitro enzyme assay (ELISA), KDR tyrosine kinase. It counts as biochemical. As to conditions: Test (a); ATP 8 μM; read-out: IC50 versus KDR tyrosine kinase.

For another test, the target named is T4, phospho-Tyr751 PDGFRβ (Homo sapiens, UniProt P09619).
T4 construct: phosphorylation of PDGFR expressed on MG63 osteosarcoma cells; endogenous in cells; host or cells: MG63 osteosarcoma cells
Briefly: In vitro phospho-Tyr751 PDGFRβ ELISA assay in MG63 osteosarcoma cells. It counts as cell-based. The conditions noted are these: Test (b); MG63 cells stimulated with PDGFBB; read-out: IC50 versus phospho-Tyr751 PDGFRβ. The procedure:
This assay uses a conventional ELISA method to determine the ability of test compounds to inhibit phosphorylation of tyrosine in PDGFRβ.
The cells were incubated overnight at 37° C. with 7.5% CO2 to allow the cells to adhere to the wells.
The cells were incubated for 90 minutes at 37° C. with 7.5% CO2.
The resultant cells were stimulated with PDGFBB using the following procedure. […] The cells were incubated at 37° C. with 7.5% CO2 for 5 minutes. […] The resultant tissue culture plates were shaken for 5 minutes at ambient temperature to ensure full lysis and then frozen at −20° C. until required.
The wells were washed 5 times (1 minute soak each time) with 300 μl per well of PBST. The wells were treated with 50 μl of 3% BSA in PBST at ambient temperature for 1 hour and subsequently washed twice with 300 μl per well of PBST.
The tissue culture plates with frozen cell lysate were allowed to warm to 0° C. […] Aliquots (50 μl) of chemiluminescent substrate solution were added to each of the wells, the plates were agitated for 2 minutes and luminescence was read on a SpectraFluor Plus plate reader (Tecan UK Ltd., Reading, Berkshire, UK). Analysis for each of the compounds was completed by determining a ratio of the ‘phospho antibody’ plate reading to the ‘total antibody’ plate reading for each test sample and these ratios were plotted to determine the IC50 value of each test compound.

T3 sequence (P35968 786-1356 limits assumed): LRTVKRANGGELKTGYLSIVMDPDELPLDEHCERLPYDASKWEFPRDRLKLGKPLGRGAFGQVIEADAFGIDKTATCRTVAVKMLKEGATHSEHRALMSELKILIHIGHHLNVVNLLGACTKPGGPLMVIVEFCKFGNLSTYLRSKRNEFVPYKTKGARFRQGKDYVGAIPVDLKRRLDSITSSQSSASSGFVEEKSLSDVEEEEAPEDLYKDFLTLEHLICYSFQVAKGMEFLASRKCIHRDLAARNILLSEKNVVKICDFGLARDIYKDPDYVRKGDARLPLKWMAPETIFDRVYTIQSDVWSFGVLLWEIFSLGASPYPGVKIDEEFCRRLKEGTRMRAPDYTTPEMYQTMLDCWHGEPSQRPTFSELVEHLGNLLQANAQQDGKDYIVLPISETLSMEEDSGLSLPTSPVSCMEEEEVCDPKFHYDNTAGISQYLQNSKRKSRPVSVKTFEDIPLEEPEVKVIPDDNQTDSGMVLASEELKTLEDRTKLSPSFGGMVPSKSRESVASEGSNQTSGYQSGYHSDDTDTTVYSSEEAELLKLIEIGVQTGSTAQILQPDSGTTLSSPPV
T1 sequence (P09619 554-1106 limits assumed): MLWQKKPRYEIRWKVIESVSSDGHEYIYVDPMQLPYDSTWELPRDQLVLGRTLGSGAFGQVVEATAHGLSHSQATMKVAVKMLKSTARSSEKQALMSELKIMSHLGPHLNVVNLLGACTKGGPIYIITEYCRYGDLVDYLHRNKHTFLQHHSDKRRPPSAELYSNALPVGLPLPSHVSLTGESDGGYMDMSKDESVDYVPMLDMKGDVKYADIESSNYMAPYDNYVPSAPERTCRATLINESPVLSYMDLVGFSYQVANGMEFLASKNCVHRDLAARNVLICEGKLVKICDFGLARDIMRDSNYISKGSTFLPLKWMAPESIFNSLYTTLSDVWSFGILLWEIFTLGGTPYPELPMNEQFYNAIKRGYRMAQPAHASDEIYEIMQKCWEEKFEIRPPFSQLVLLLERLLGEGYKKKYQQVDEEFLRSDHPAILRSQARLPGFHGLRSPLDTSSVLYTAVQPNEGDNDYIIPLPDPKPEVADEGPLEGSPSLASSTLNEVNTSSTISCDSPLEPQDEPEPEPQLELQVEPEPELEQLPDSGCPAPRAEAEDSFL
T2 sequence (P16234 550-1089 limits assumed): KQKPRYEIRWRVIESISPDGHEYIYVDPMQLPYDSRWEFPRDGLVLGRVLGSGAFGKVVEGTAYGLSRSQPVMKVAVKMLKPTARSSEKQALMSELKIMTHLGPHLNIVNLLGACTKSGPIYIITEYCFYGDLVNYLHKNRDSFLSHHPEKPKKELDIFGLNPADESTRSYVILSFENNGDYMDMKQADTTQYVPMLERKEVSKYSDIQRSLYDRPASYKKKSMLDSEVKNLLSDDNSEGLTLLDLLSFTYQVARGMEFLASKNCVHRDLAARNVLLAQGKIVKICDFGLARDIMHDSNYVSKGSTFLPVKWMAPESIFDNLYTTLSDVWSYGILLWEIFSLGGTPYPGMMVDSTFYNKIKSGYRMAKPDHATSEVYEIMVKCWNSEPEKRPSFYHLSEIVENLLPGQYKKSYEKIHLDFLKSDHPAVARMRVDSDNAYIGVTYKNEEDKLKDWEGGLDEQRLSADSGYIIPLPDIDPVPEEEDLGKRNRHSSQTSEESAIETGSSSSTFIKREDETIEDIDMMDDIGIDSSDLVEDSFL
T4 sequence (P09619 33-1106): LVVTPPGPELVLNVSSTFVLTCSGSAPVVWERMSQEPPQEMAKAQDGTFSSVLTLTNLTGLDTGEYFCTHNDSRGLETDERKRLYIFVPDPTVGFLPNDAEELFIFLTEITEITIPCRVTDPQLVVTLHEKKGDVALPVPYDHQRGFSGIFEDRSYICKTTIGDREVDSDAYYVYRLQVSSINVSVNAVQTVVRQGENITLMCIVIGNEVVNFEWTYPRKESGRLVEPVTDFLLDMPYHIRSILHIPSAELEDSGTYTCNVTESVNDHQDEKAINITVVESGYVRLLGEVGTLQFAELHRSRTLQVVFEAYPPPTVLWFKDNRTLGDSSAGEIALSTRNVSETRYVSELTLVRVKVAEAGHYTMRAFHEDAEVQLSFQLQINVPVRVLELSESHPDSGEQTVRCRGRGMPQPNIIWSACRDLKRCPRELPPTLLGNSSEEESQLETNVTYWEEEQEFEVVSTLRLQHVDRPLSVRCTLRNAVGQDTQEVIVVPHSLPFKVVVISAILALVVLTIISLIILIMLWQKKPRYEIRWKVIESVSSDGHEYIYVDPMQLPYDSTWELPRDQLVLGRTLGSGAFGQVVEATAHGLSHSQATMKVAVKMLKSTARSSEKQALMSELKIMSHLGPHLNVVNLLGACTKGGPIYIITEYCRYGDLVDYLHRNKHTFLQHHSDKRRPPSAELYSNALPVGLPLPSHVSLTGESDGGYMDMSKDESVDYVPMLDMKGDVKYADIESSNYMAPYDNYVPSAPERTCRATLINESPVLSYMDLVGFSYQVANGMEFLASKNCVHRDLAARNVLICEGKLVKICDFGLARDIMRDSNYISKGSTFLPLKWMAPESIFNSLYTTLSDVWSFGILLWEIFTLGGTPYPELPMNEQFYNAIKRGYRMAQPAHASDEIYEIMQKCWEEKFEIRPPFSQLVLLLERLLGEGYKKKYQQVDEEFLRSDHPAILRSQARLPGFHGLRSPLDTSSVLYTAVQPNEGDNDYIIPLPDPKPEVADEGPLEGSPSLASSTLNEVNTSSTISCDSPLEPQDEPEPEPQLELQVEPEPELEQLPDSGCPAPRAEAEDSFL
Description for KDR tyrosine kinase: For expression, Sf9 cells were infected with plaque-pure KDR recombinant virus and harvested 48 hours later. […] The suspension was centrifuged for 10 minutes at 13,000 rpm at 4° C. The supernatant (stock enzyme solution) was removed and stored in aliquots at −70° C.
(§1) The excess of substrate solution was discarded and the wells were washed in turn with PBS containing 0.05% v/v Tween 20 (PBST; 300 μl/well) and twice with Hepes pH7.4 buffer (50 mM, 300 μl/well) before being blotted dry.
Aliquots (25 μl) of each dilution of test compound were transferred to wells in the washed assay plates. “Maximum” control wells contained diluted DMSO instead of compound. […]
Each kinase enzyme was diluted immediately prior to use with an enzyme diluent comprising 100 mM Hepes pH7.4 buffer, 0.1 mM sodium orthovanadate, 0.1% Triton X-100 and 0.2 mM dithiothreitol. […] The plates were agitated at ambient temperature for about 20 minutes until the optical density value of the “maximum” control wells, as measured at 405 nm using a plate reading spectrophotometer, was approximately 1.0.
Description for PDGFRβ tyrosine kinase: as §1
Aliquots (25 μl) of each dilution of test compound were transferred to wells in the washed assay plates. “Maximum” control wells contained diluted DMSO instead of compound. Aliquots (25 μl) of an aqueous manganese chloride solution (40 mM) containing adenosine-5′-triphosphate (ATP) was added to all test wells except the “blank” control wells which contained magnesium chloride without ATP.
Each kinase enzyme was diluted immediately prior to use with an enzyme diluent comprising 100 mM Hepes pH7.4 buffer, 0.1 mM sodium orthovanadate, 0.1% Triton X-100 and 0.2 mM dithiothreitol. Aliquots (50 μl) of freshly diluted enzyme were added to each well and the plates were agitated at ambient temperature for 20 minutes. […] The plates were agitated at ambient temperature for about 20 minutes until the optical density value of the “maximum” control wells, as measured at 405 nm using a plate reading spectrophotometer, was approximately 1.0.

For the compound `COc1cc2nccc(Oc3cnn(CC(=O)Nc4cccc(F)c4)c3)c2cc1C#N` [Example 1, N-(3-fluorophenyl)-2-[4-(6-cyano-7-methoxyquinolin-4-yloxy)pyrazol-1-yl]acetamide], the IC50 against PDGFRβ tyrosine kinase was about 100 nM; at PDGFRα tyrosine kinase, about 500 nM; on KDR tyrosine kinase, about 6000 nM; at phospho-Tyr751 PDGFRβ, about 2 nM.
